From ChEMBL document CHEMBL4507280 (2021)

What was measured:
Histamine H4 receptor = Histamine H4 receptor (Homo sapiens, UniProt Q9H3N8); test: GPCRScan assay: inhibition of H4; set-up: radioligand conc. used [nm] 1.0 – 5.0, parental cells HEK T
[1] = target: Sigma intracellular receptor 2 (Homo sapiens, UniProt Q5BJF2); test: GPCRScan assay: inhibition of Sigma 2; set-up: radioligand conc. used [nm] 5.0, parental cells HEKT
[2] = system: Tyrosine-protein kinase ABL1 (Homo sapiens), P00519 [F317I]; conditions: Compound concentration 1000.0 nM
[3] = system: Tyrosine-protein kinase ABL1 (Homo sapiens), P00519 [Y253F]; conditions: Compound concentration 1000.0 nM
[4] = target: Activin receptor type-1B (Homo sapiens) (UniProt P36896); conditions: Compound concentration 1000.0 nM
[5] = target: Peripheral plasma membrane protein CASK (Homo sapiens) (UniProt O14936); conditions: Compound concentration 1000.0 nM
Chain of Peripheral plasma membrane protein CASK (Homo sapiens) (O14936 whole entry): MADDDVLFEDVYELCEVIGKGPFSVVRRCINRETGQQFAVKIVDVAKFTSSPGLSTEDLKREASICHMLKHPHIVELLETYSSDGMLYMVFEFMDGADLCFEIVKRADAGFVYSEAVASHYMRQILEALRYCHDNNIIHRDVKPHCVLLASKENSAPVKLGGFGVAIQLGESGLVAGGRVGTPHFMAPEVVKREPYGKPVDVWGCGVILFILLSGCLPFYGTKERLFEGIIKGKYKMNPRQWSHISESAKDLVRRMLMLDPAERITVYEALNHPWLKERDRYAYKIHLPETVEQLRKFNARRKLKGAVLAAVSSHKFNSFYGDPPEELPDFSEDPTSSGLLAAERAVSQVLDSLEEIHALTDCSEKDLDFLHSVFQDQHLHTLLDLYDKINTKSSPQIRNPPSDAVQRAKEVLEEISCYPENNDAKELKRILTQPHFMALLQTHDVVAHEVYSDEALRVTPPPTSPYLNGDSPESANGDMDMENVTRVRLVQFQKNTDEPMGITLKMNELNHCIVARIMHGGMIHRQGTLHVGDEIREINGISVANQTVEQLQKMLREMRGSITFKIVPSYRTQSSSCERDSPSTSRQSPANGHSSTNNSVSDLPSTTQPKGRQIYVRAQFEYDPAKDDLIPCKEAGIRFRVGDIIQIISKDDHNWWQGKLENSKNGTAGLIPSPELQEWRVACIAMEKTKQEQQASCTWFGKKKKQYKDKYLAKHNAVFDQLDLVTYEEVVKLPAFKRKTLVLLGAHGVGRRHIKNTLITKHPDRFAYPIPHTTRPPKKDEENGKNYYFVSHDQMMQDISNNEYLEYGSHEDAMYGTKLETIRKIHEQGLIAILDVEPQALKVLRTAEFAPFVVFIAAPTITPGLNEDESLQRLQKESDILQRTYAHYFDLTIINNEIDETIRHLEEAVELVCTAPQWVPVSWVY

[6] = target: Tyrosine-protein kinase Fgr (Homo sapiens) (UniProt P09769); conditions: Compound concentration 1000.0 nM
[7] = target: Dual specificity mitogen-activated protein kinase kinase 2 (Homo sapiens) (UniProt P36507); conditions: Compound concentration 1000.0 nM
[8] = target: Ribosomal protein S6 kinase alpha-5 (Homo sapiens) (UniProt O75582); conditions: Compound concentration 1000.0 nM
[9] = target: Uncharacterized serine/threonine-protein kinase SBK3 (Homo sapiens) (UniProt P0C264); conditions: Compound concentration 1000.0 nM
Chain of Uncharacterized serine/threonine-protein kinase SBK3 (Homo sapiens) (P0C264 whole entry): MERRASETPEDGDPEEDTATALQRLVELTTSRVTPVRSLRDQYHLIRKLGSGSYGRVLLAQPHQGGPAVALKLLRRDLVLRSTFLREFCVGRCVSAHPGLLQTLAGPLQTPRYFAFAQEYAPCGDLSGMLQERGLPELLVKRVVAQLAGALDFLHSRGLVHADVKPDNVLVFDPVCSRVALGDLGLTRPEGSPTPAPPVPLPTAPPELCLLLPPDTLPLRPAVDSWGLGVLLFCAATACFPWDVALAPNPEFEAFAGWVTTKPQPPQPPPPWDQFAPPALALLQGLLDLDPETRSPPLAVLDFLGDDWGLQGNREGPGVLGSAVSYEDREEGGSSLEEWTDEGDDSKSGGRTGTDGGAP

[10] = target: NUAK family SNF1-like kinase 2 (Homo sapiens) (UniProt Q9H093); conditions: Compound concentration 1000.0 nM
Chain of NUAK family SNF1-like kinase 2 (Homo sapiens) (Q9H093 whole entry): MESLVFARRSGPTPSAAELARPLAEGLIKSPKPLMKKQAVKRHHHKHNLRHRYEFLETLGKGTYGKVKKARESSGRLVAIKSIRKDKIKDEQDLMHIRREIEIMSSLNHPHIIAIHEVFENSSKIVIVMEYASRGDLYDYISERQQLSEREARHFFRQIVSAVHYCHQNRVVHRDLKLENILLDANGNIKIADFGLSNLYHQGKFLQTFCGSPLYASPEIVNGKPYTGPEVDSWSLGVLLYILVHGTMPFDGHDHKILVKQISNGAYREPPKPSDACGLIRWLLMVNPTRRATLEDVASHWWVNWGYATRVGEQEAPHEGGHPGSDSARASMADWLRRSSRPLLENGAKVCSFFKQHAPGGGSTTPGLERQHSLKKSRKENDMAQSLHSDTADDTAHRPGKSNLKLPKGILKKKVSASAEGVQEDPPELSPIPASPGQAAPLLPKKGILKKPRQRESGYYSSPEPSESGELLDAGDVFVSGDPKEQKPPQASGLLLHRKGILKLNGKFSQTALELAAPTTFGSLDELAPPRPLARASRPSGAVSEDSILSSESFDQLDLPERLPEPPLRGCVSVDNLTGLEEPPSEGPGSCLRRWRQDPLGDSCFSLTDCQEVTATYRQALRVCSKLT

[11] = target: Delta-type opioid receptor (Homo sapiens) (UniProt P41143); conditions: Compound concentration 10.0 uM
Chain of Delta-type opioid receptor (Homo sapiens) (P41143 whole entry): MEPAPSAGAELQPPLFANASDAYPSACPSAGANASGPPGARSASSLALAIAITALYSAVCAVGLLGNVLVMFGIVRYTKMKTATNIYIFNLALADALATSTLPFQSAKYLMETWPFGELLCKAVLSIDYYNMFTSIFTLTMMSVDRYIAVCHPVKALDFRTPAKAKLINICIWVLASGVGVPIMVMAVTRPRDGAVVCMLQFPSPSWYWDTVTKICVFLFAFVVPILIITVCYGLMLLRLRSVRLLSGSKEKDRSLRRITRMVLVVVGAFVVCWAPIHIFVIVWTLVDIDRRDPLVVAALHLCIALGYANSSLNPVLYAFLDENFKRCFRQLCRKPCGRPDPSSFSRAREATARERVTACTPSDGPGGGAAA

[12] = target: Alpha-2A adrenergic receptor (Homo sapiens) (UniProt P08913); conditions: Compound concentration 10.0 uM
[13] = target: Adenosine receptor A2a (Homo sapiens) (UniProt P29274); test: A2A/HU Eurofins-Panlabs selectivity data (BI); conditions: Compound concentration 10.0 uM
[14] = target: T1, Alpha-1A adrenergic receptor (Homo sapiens) (UniProt P35348); test: ALPHA1A/R Eurofins-Panlabs selectivity data (BI); conditions: Rattus norvegicus; Compound concentration 10.0 uM
T1 sequence (whole entry): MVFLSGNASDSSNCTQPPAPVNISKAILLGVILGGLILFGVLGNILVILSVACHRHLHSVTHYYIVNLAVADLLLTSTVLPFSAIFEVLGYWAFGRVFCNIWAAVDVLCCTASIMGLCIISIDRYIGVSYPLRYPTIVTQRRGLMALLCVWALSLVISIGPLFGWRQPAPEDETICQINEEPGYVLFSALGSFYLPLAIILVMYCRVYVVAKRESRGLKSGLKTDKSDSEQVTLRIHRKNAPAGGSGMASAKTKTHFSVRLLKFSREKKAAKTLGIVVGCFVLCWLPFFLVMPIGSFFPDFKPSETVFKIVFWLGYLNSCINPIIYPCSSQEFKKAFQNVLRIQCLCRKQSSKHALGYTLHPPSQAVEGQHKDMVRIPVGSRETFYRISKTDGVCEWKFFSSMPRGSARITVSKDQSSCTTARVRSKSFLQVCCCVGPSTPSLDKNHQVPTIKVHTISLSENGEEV

[15] = target: T2, Alpha-1B adrenergic receptor (Homo sapiens) (UniProt P35368); test: ALPHA1B/R Eurofins-Panlabs selectivity data (BI); conditions: Rattus norvegicus; Compound concentration 10.0 uM
T2 sequence (whole entry): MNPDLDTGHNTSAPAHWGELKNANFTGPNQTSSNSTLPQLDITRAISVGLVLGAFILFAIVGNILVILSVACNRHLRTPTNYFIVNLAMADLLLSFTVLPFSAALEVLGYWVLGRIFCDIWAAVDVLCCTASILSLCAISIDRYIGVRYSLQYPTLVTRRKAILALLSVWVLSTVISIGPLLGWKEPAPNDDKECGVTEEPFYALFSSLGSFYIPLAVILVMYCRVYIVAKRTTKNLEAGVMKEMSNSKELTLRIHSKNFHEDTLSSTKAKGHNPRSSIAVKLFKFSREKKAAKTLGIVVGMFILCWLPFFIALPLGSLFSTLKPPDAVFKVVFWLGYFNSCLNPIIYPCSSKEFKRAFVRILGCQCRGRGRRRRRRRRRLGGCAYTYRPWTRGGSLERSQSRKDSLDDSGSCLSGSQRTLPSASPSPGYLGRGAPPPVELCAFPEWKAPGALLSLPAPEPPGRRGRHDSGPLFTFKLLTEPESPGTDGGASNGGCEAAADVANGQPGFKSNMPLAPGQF

[16] = target: Beta-1 adrenergic receptor (Homo sapiens) (UniProt P08588); test: BETA1/HU Eurofins-Panlabs selectivity data (BI); conditions: Compound concentration 10.0 uM
[17] = target: Beta-2 adrenergic receptor (Homo sapiens) (UniProt P07550); test: BETA2/HU Eurofins-Panlabs selectivity data (BI); conditions: Compound concentration 10.0 uM
[18] = target: Voltage-dependent L-type calcium channel subunit alpha-1C (DHP site) (Rattus norvegicus, UniProt P22002); test: CA+/DHPSI/RA Eurofins-Panlabs selectivity data (BI); conditions: compound concentration 10 uM, read-out: % Ctrl
[19] = target: D(1A) dopamine receptor (Homo sapiens) (UniProt P21728); test: D1/HU Eurofins-Panlabs selectivity data (BI); conditions: Compound concentration 10.0 uM
[20] = target: Gamma-aminobutyric acid receptor subunit alpha-1 (Rattus norvegicus) (UniProt P62813); test: GABAA MUSCIMOL CENT Eurofins-Panlabs selectivity data (BI); conditions: Compound concentration 10.0 uM
Chain of Gamma-aminobutyric acid receptor subunit alpha-1 (Rattus norvegicus) (P62813 whole entry): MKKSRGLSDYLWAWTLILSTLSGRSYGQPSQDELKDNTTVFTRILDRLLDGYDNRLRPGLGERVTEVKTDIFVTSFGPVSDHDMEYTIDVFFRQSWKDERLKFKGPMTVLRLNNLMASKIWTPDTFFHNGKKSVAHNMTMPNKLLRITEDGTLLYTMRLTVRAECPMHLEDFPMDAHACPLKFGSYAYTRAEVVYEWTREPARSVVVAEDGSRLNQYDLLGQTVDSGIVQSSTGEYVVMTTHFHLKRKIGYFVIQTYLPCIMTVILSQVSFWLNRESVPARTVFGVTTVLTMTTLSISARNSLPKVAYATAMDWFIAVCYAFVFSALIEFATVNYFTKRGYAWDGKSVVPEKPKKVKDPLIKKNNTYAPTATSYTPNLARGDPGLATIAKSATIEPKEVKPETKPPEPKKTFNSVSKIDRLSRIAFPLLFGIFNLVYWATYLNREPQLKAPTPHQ

[21] = target: Gamma-aminobutyric acid receptor subunit alpha-1 (Rattus norvegicus) (UniProt P62813); test: GABAACENTR Eurofins-Panlabs selectivity data (BI); conditions: Compound concentration 10.0 uM
[22] = target: Histamine H1 receptor (Homo sapiens) (UniProt P35367); test: H1/H Eurofins-Panlabs selectivity data (BI); conditions: Compound concentration 10.0 uM
[23] = target: hERG (KCNH2) potassium channel (Homo sapiens, UniProt Q12809); test: K+/HERG Eurofins-Panlabs selectivity data (BI); conditions: compound concentration 10 uM, read-out: % Ctrl
Chain of hERG (KCNH2) potassium channel (Q12809 whole entry): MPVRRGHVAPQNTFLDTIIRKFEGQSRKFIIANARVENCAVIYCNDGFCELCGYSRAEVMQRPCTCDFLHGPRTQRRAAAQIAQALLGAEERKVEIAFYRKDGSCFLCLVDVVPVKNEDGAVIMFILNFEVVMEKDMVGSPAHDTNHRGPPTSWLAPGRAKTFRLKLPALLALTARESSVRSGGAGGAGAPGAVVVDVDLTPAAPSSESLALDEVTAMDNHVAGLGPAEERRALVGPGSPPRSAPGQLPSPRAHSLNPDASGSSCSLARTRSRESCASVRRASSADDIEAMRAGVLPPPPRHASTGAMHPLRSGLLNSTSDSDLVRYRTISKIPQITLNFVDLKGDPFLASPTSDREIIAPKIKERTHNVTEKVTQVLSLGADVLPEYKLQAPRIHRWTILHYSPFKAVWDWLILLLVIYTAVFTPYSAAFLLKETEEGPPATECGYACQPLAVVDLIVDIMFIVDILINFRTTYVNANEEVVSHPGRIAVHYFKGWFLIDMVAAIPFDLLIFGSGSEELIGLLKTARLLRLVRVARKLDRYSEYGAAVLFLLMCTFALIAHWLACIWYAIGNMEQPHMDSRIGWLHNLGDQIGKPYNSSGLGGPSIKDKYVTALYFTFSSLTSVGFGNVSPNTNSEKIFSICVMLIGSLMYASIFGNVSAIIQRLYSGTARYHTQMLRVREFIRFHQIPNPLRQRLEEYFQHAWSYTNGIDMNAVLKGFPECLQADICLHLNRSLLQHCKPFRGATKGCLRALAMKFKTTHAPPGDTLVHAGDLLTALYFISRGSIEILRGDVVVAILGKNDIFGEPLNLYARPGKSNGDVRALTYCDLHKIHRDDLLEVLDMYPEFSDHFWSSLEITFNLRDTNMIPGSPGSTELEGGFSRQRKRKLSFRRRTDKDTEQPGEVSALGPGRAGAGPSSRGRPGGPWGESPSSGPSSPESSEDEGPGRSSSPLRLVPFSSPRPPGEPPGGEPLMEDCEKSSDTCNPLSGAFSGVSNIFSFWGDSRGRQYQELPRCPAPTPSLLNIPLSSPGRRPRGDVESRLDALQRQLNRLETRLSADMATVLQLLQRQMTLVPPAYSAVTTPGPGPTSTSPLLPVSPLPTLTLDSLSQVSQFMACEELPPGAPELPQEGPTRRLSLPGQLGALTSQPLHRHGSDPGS

[24] = target: Nicotinic acetylcholine receptor alpha-1/beta-1 (Homo sapiens) (UniProt P02708+P11230); test: NACH_BS_N/H Eurofins-Panlabs selectivity data (BI); format: protein-complex assay; conditions: Compound concentration 10.0 uM
[25] = target: Glutamate receptor ionotropic, NMDA 2A (Rattus norvegicus) (UniProt Q00959); test: NMDAPHSI/R Eurofins-Panlabs selectivity data (BI); conditions: Compound concentration 10.0 uM
[26] = target: 3',5'-cyclic-AMP phosphodiesterase 4A (Rattus norvegicus) (UniProt P54748); test: ROLIPRAM/R Eurofins-Panlabs selectivity data (BI); conditions: Compound concentration 10.0 uM
[27] = target: Sigma non-opioid intracellular receptor 1 (Homo sapiens) (UniProt Q99720); test: SIGMA1/HU Eurofins-Panlabs selectivity data (BI); conditions: Compound concentration 10.0 uM
[28] = target: Dual specificity mitogen-activated protein kinase kinase 5 (Homo sapiens) (UniProt Q13163); conditions: Compound concentration 1000.0 nM
[29] = target: 5-hydroxytryptamine receptor 1B (Homo sapiens) (UniProt P28222); conditions: Compound concentration 10.0 uM
Chain of 5-hydroxytryptamine receptor 1B (Homo sapiens) (P28222 whole entry): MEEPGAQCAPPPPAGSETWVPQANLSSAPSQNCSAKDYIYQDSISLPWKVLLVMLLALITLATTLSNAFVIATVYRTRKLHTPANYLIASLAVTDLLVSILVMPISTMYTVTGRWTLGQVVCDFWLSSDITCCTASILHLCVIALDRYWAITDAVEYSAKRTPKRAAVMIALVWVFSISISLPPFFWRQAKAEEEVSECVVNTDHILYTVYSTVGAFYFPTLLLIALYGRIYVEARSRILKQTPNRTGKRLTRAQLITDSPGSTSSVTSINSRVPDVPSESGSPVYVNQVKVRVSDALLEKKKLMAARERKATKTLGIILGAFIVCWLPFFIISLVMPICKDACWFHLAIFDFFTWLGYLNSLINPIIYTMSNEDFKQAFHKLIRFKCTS

[30] = target: Muscarinic acetylcholine receptor M1 (Homo sapiens) (UniProt P11229); conditions: Compound concentration 10.0 uM
[31] = target: Alpha-1D adrenergic receptor (Homo sapiens) (UniProt P25100); conditions: Compound concentration 10.0 uM
Chain of Alpha-1D adrenergic receptor (Homo sapiens) (P25100 whole entry): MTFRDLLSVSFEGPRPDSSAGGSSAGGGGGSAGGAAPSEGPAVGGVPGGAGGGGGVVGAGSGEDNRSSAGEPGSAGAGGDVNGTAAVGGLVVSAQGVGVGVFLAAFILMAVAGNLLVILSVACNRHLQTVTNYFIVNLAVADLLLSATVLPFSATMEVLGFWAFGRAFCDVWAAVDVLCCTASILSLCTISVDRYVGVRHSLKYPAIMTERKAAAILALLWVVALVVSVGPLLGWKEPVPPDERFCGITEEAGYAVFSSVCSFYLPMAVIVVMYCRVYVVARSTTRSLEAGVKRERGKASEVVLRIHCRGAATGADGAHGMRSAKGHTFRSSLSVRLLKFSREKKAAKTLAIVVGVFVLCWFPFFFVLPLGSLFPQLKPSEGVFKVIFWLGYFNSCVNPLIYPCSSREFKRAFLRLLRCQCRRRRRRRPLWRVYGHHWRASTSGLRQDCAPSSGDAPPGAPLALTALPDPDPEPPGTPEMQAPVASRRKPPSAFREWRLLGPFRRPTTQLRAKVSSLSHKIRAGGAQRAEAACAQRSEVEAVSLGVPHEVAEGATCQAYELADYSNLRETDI

CCC(=O)N[C@@H]1CC[C@H](C(=O)N(C)c2ccc(-c3nc4ccccc4o3)cc2)C1 [BI 99990] showed a Ki (Histamine H4 receptor) of 1.63 µM, a Ki [1] of 0.396 µM and a residual activity [2] of 87%. The residual activity [3] was 95%, the residual activity [4] was 100% and the residual activity [5] was 83%. It also gave a residual activity [6] of 100%, a residual activity [7] of 100% and a residual activity [8] of 75%. For the same molecule, the residual activity [9] was 88%, the residual activity [10] was 100% and the inhibition [11] was -0.0188%. The inhibition [12] was 11.2%.

CCC(=O)N[C@H]1CC[C@@H](C(=O)N(C)c2ccc(-c3nc4ccccc4o3)cc2)C1 [BI 99179] showed a residual activity [13] of 90%, a residual activity [14] of 83% and a residual activity [15] of 96%. The residual activity [16] was 96%, the residual activity [17] was 100% and the activity at 10 µM [18] was 93% (not active). For the same molecule, the residual activity [19] was 93%, the residual activity [20] was 96% and the residual activity [21] was 92%. The residual activity [22] was 87%, the activity at 10 µM [23] was 105% (not active) and the residual activity [24] was 91%. The residual activity [25] was 101%, the residual activity [26] was 83% and the residual activity [27] was 102%. For the same molecule, the residual activity [28] was 16%, the inhibition [29] was 25.7% and the inhibition [30] was 3.53%. The inhibition [31] was 50%.
